From PubChem BioAssay (NCI)
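Briefly, cells in 96-well plates were exposed to five compound concentrations for 48 h, and endpoints were estimated by linear interpolation. GI50 = concentration required for 50% inhibition of growth. TGI: concentration producing complete growth inhibition.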

Assays:
Assay in all cases: DTP human tumour cell line panel, 48 h
HT29 colon = test system: HT29 colon
TK-10 renal = test system: TK-10 renal
CAKI-1 renal = test system: CAKI-1 renal
HCT-15 colon = test system: HCT-15 colon
HCC-2998 colon = test system: HCC-2998 colon
UACC-257 melanoma = test system: UACC-257 melanoma
CCRF-CEM leukemia = test system: CCRF-CEM leukemia
SR leukemia = test system: SR leukemia
MALME-3M melanoma = test system: MALME-3M melanoma
K-562 leukemia = test system: K-562 leukemia
PC-3 prostate = test system: PC-3 prostate

In the case of `CCCc1c(OC)c(=O)c2c(OC)cc(OC)c3c4c(OC)cc(OC)c5c(=O)c(OC)c(CCC)c(c1c23)c54`, the TGI (HT29 colon) is reported as 24.1 µM, the TGI (TK-10 renal) is reported as 36.8 µM and the TGI (CAKI-1 renal) is reported as 27.7 µM. For the same compound, the TGI (HCT-15 colon) was 27.9 µM, the TGI (HCC-2998 colon) was 38.7 µM and the TGI (UACC-257 melanoma) was 46.6 µM.

Compound `CCNC1(c2cccc(C)c2)OC(C)(C)c2cccc3cccc1c23` (stereo unspecified) has a TGI (HT29 colon) of 27.8 µM, a TGI (TK-10 renal) of 38.3 µM and a TGI (CAKI-1 renal) of 48.1 µM. For the same compound, the TGI (CCRF-CEM leukemia) was 26.4 µM, the TGI (SR leukemia) was 35.9 µM and the TGI (HCT-15 colon) was 42.9 µM. For the same compound, the TGI (MALME-3M melanoma) was 34.3 µM, the TGI (K-562 leukemia) was greater than 100 µM and the TGI (UACC-257 melanoma) was 37.9 µM.

Compound `Nc1c(-c2nc3ccccc3s2)c2ccc([N+](=O)[O-])cc2c(=O)n1-c1cccc(C(=O)O)c1` has a TGI (HT29 colon) greater than 100 µM, a TGI (TK-10 renal) of 52.3 µM and a TGI (CAKI-1 renal) of 80.3 µM. The TGI (PC-3 prostate) was greater than 100 µM, the TGI (CCRF-CEM leukemia) was 56.8 µM and the TGI (SR leukemia) was 44.1 µM. The TGI (HCT-15 colon) was greater than 100 µM, the TGI (HCC-2998 colon) was greater than 100 µM and the TGI (UACC-257 melanoma) was 61.9 µM.

Work on `CC1(C)CC[C@]2(C)CC=C3[C@]4(C)CC[C@H]5C(C)(C)C(=O)CC[C@]5(C)[C@H]4CC[C@@]3(C)[C@H]2C1` yielded a TGI (HT29 colon) greater than 100 µM, a TGI (TK-10 renal) greater than 100 µM and a TGI (CAKI-1 renal) greater than 100 µM. The TGI (PC-3 prostate) was greater than 100 µM, the TGI (CCRF-CEM leukemia) was greater than 100 µM and the TGI (SR leukemia) was greater than 100 µM. For the same compound, the TGI (HCT-15 colon) was greater than 100 µM, the TGI (MALME-3M melanoma) was greater than 100 µM and the TGI (HCC-2998 colon) was greater than 100 µM. The TGI (UACC-257 melanoma) was greater than 100 µM.

`CCCCCCOc1ccc(C(=O)NOCc2ccccc2)cc1` showed a TGI (HT29 colon) greater than 100 µM, a TGI (TK-10 renal) greater than 100 µM and a TGI (CAKI-1 renal) greater than 100 µM. It also gave a TGI (PC-3 prostate) greater than 100 µM, a TGI (CCRF-CEM leukemia) greater than 100 µM and a TGI (SR leukemia) of 67.4 µM. The TGI (HCT-15 colon) was greater than 100 µM, the TGI (HCC-2998 colon) was greater than 100 µM and the TGI (K-562 leukemia) was greater than 100 µM. For the same compound, the TGI (UACC-257 melanoma) was greater than 100 µM.

`COCC1CCCN1c1ccc(/C=C(/C#N)C(N)=S)cc1` (stereo unspecified) was tested, and the GI50 (HT29 colon) was greater than 100 µM, the TGI (HT29 colon) was greater than 100 µM and the GI50 (TK-10 renal) was greater than 100 µM. The TGI (TK-10 renal) was greater than 100 µM, the GI50 (CAKI-1 renal) was greater than 100 µM and the TGI (CAKI-1 renal) was greater than 100 µM. The GI50 (CCRF-CEM leukemia) was 5.04 µM, the TGI (CCRF-CEM leukemia) was 20.6 µM and the GI50 (HCT-15 colon) was greater than 100 µM. The TGI (HCT-15 colon) was greater than 100 µM, the GI50 (MALME-3M melanoma) was greater than 100 µM and the TGI (MALME-3M melanoma) was greater than 100 µM. The GI50 (HCC-2998 colon) was greater than 100 µM, the TGI (HCC-2998 colon) was greater than 100 µM and the GI50 (K-562 leukemia) was 30.2 µM. It also gave a TGI (K-562 leukemia) greater than 100 µM, a GI50 (UACC-257 melanoma) greater than 100 µM and a TGI (UACC-257 melanoma) greater than 100 µM.

For `CCCCn1c(C)c(C(=O)OCC)s/c1=N/Nc1nc2ccccc2nc1-c1ccccc1`, the TGI (HT29 colon) was greater than 100 µM, the TGI (TK-10 renal) was greater than 100 µM and the TGI (CAKI-1 renal) was greater than 100 µM. The TGI (PC-3 prostate) was greater than 100 µM, the TGI (CCRF-CEM leukemia) was greater than 100 µM and the TGI (SR leukemia) was greater than 100 µM. The TGI (HCT-15 colon) was greater than 100 µM, the TGI (HCC-2998 colon) was greater than 100 µM and the TGI (K-562 leukemia) was greater than 100 µM. The TGI (UACC-257 melanoma) was greater than 100 µM.

Work on `CC(C)NC(=O)CN1CCN(C2=CC(=O)c3c(O)ccc(O)c3C2=O)CC1` yielded a TGI (HT29 colon) of 12.3 µM, a TGI (TK-10 renal) of 31.5 µM and a TGI (CAKI-1 renal) greater than 60.7 µM. It also gave a TGI (PC-3 prostate) greater than 80.5 µM, a TGI (CCRF-CEM leukemia) greater than 95.2 µM and a TGI (HCT-15 colon) of 45.3 µM. It also gave a TGI (MALME-3M melanoma) of 4.41 µM, a TGI (HCC-2998 colon) of 30.4 µM and a TGI (K-562 leukemia) greater than 100 µM. For the same compound, the TGI (UACC-257 melanoma) was 19.8 µM.

`O=C1CN2Cc3cc(N4CCOCC4)ccc3N=C2N1` showed a TGI (HT29 colon) greater than 100 µM, a TGI (TK-10 renal) greater than 100 µM and a TGI (CAKI-1 renal) greater than 100 µM. The TGI (PC-3 prostate) was greater than 100 µM, the TGI (CCRF-CEM leukemia) was greater than 100 µM and the TGI (SR leukemia) was greater than 100 µM. It also gave a TGI (HCT-15 colon) greater than 100 µM, a TGI (MALME-3M melanoma) greater than 100 µM and a TGI (K-562 leukemia) greater than 100 µM. For the same compound, the TGI (UACC-257 melanoma) was greater than 100 µM.

With `CCCCc1c2c(nc3c1CCCC3O)/C(=C/c1ccccc1)CCC2` (stereo unspecified) the TGI (HT29 colon) was 46.1 µM, the TGI (TK-10 renal) was 74.7 µM and the TGI (CCRF-CEM leukemia) was 43.9 µM. For the same compound, the TGI (SR leukemia) was 42 µM, the TGI (HCT-15 colon) was 61.6 µM and the TGI (MALME-3M melanoma) was 44.8 µM. For the same compound, the TGI (HCC-2998 colon) was 24.3 µM, the TGI (K-562 leukemia) was 40.5 µM and the TGI (UACC-257 melanoma) was 96.6 µM.
